Target: Intercellular adhesion molecule (ICAM-1), Integrin alpha-L/beta-2 (Homo sapiens, UniProt P05107+P05362+P20701)
Assay: Concentration required to inhibit binding of ICAM-1 to LFA-1 (Leukocyte function-associated antigen-1), evaluated ELISA
Format: protein-complex assay

Chain of Intercellular adhesion molecule (ICAM-1), Integrin alpha-L/beta-2 (P20701 whole entry): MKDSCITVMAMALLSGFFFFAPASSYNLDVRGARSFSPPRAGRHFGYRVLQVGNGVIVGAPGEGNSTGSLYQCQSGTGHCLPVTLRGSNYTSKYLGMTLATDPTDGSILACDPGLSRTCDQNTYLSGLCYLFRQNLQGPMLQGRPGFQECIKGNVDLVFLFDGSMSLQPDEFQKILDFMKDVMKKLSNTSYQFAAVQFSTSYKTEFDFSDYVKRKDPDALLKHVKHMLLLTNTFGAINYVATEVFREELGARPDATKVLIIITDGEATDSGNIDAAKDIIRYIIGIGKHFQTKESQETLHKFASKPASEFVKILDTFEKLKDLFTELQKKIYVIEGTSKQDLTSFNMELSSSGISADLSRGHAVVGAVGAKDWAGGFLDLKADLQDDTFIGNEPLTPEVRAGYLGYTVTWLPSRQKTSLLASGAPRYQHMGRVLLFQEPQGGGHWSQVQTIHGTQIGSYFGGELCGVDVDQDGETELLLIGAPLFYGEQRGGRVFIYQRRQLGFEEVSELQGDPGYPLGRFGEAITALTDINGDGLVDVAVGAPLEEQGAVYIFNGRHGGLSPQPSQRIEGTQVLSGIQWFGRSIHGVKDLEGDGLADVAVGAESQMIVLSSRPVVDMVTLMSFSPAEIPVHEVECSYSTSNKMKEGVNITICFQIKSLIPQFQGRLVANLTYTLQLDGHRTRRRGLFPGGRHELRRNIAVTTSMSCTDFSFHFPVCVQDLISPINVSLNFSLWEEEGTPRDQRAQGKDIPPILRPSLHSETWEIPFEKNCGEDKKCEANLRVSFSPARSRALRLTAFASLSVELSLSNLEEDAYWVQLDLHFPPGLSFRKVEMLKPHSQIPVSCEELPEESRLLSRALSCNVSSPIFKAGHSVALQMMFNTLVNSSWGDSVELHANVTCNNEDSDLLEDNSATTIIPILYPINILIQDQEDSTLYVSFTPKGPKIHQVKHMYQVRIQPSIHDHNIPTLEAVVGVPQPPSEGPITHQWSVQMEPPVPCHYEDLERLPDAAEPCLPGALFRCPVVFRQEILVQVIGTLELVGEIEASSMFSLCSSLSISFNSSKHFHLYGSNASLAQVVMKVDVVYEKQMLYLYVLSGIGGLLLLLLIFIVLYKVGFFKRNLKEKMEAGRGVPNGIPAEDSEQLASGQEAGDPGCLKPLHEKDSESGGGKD
Chain of Intercellular adhesion molecule (ICAM-1), Integrin alpha-L/beta-2 (P05362 whole entry): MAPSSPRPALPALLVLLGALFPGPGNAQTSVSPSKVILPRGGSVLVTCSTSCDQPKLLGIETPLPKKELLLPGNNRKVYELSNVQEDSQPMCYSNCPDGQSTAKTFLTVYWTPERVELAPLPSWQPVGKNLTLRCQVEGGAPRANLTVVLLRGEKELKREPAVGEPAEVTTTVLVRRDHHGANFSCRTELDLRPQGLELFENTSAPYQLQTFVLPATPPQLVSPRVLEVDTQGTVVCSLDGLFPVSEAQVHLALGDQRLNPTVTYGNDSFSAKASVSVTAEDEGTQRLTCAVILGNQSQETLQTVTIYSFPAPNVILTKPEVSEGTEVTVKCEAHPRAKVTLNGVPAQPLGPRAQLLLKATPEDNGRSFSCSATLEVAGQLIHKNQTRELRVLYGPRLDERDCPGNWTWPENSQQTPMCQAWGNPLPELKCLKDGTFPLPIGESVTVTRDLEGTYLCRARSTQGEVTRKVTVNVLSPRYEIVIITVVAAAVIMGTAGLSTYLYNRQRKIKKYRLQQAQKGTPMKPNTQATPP
Chain of Intercellular adhesion molecule (ICAM-1), Integrin alpha-L/beta-2 (P05107 whole entry): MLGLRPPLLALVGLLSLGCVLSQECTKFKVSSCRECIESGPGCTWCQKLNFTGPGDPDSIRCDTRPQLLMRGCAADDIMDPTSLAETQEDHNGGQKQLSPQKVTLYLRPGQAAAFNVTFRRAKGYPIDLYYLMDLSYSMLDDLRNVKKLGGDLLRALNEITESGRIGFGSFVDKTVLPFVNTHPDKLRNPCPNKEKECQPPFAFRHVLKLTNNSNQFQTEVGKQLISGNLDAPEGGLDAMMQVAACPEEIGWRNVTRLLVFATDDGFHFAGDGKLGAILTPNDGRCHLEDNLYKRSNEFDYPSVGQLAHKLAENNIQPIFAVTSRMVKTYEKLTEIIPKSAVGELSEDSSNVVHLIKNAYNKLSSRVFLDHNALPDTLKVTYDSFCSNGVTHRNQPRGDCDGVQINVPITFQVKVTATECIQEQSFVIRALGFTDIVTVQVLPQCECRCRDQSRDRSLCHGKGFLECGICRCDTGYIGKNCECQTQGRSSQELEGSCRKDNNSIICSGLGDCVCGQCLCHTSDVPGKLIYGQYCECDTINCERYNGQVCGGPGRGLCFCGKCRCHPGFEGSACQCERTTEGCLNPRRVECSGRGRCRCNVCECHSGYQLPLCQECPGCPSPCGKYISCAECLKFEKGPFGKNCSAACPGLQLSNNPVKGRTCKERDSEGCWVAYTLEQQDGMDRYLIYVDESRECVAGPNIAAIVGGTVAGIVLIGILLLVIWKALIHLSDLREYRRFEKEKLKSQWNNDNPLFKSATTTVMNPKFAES

Row | Compound | IC50 [µM]
1 | C[C@@H](O)[C@H](NC(=O)c1ccccc1Br)C(=O)O | 3.84
2 | CC(C)C[C@H](NC(=O)c1ccccc1Br)C(=O)O | 54.3
3 | COc1ccc2[nH]cc(C[C@H](NC(=O)c3ccccc3Br)C(=O)O)c2c1 | 2.77
4 | O=C(N[C@@H](CCc1ccccc1)C(=O)O)c1ccccc1Br | 5.09
5 | O=C(N[C@@H](Cc1c[nH]c2ccc(F)cc12)C(=O)O)c1ccccc1Br | 10.8
6 | O=C(N[C@@H](Cc1ccc(-c2ccccc2)cc1)C(=O)O)c1ccccc1Br | 50.5
7 | O=C(N[C@@H](Cc1c[nH]c2ccc(Br)cc12)C(=O)O)c1ccccc1Br | 28.4
8 | O=C(N[C@H](Cc1cccc2ccccc12)C(=O)O)c1ccccc1Br | > 200
9 | CSCC[C@H](NC(=O)c1ccccc1Br)C(=O)O | 7.46
10 | C[C@H](NC(=O)c1ccccc1Br)C(=O)O | 6.64
11 | O=C(N[C@@H](Cc1c[nH]c2ccccc12)C(=O)O)c1ccccc1Br | 1.7
12 | O=C(O)CC[C@H](NC(=O)c1ccccc1Br)C(=O)O | 30.1
13 | NC(=O)C[C@H](NC(=O)c1ccccc1Br)C(=O)O | 1.08
14 | O=C(N[C@@H](Cc1ccc2ccccc2c1)C(=O)O)c1ccccc1Br | 24.4
15 | O=C(N[C@H](Cc1ccc2ccccc2c1)C(=O)O)c1ccccc1Br | 243
16 | O=C(N[C@H](Cc1ccccc1)C(=O)O)c1ccccc1Br | 280
17 | NC(=O)CC[C@H](NC(=O)c1ccccc1Br)C(=O)O | 1.77
18 | NCCCC[C@H](NC(=O)c1ccccc1Br)C(=O)O | 1.21
19 | O=C(N[C@@H](Cc1cnc[nH]1)C(=O)O)c1ccccc1Br | 0.75
20 | N=C(N)NCCC[C@H](NC(=O)c1ccccc1Br)C(=O)O | 2.71
21 | O=C(N[C@@H](Cc1ccccc1)C(=O)O)c1ccccc1Br | 4.89

Row | Compound | IC50 [µM]
22 | O=C(N[C@H](CO)C(=O)O)c1ccccc1Br | 72.6
23 | O=C(N[C@@H](Cc1c[nH]c2ccccc12)C(=O)NO)c1ccccc1Br | 140
24 | O=C(N[C@@H](Cc1c[nH]c2ncccc12)C(=O)O)c1ccccc1Br | 63.8
25 | NC(=O)[C@H](Cc1c[nH]c2ccccc12)NC(=O)c1ccccc1Br | > 1000
26 | O=C(N[C@@H](CS)C(=O)O)c1ccccc1Br | 4.26
27 | O=C(N[C@@H](Cc1c[nH]c2cc(F)ccc12)C(=O)O)c1ccccc1Br | 7.64
28 | O=C(N[C@@H](Cc1ccc(O)cc1)C(=O)O)c1ccccc1Br | 1.09
29 | O=C(O)[C@@H]1CCCN1C(=O)c1ccccc1Br | > 1000
30 | CC[C@H](C)[C@H](NC(=O)c1ccccc1Br)C(=O)O | 106
31 | COC(=O)[C@H](Cc1c[nH]c2ccccc12)NC(=O)c1ccccc1Br | > 1000
32 | N#Cc1ccc(C[C@H](NC(=O)c2ccccc2Br)C(=O)O)cc1 | 36.8
33 | O=C(O)C[C@H](NC(=O)c1ccccc1Br)C(=O)O | > 200
34 | CC(C)[C@H](NC(=O)c1ccccc1Br)C(=O)O | 11.3
35 | C[C@@H](NC(=O)c1ccccc1Br)C(=O)O | 57.5
36 | O=C(O)CNC(=O)c1ccccc1Br | 314
37 | O=C(NCCc1c[nH]c2ccccc12)c1ccccc1Br | > 1000
38 | O=C(N[C@@H](Cc1cccs1)C(=O)O)c1ccccc1Br | 5.5
39 | O=C(N[C@@H](CO)C(=O)O)c1ccccc1Br | 6.15
40 | O=C(N[C@@H](Cc1cccc2ccccc12)C(=O)O)c1ccccc1Br | 15.9
41 | O=C(N[C@H](Cc1c[nH]c2ccccc12)C(=O)O)c1ccccc1Br | 76.6
42 | O=C(N[C@@H](Cc1c[nH]c2ccc(O)cc12)C(=O)O)c1ccccc1Br | 24.2

From ChEMBL document CHEMBL1136638, “N-Benzoyl amino acids as LFA-1/ICAM inhibitors 1: amino acid structure-activity relationship” (Bioorg Med Chem Lett, 2003)
